Among the data in patent US20260345510A1, “MEMBRANE COATED NANOPARTICLES FOR DRUG DELIVERY” (Arizona Board Regents on Behalf of Arizona State University, priority 2022, published 2026) are plaque sizes values, retold here.

In the assay the test system is PL-induced carotid atherosclerosis in the LCA. Briefly: Plaque development in partially ligated LCA (long-term experiment). In kind it is in vivo, mouse (ApoE−/−). Particulars: free drug counterpart, repeated doses, without photoactivation. The source says: All animal experiments performed in this study have been approved by the Institutional Animal Care and Use Committee (IACUC) of Arizona State University, USA. Male ApoE^−/− mice (8-12 weeks old), purchased from The Jackson Laboratory, were subjected to the partial ligation (PL) procedure to induce inflammation and carotid atherosclerosis in the left carotid artery (LCA). All mice were fed a high-fat diet (Envigo #TD.88137) for 1 week prior to the PL procedure and continued to be fed the same diet until the time of euthanasia. […] For biodistribution analysis, MoNP-DiD was administered via retro-orbital injection to mice that underwent the PL 1 week prior. The arterial tissue (from carotid bifurcation to abdominal aorta) and organs were harvested 4 hours after the injection, and DiD intensity was quantified for each of the three individual zones within the arterial segments using fluorescent imaging. Subsequently, the left common CA was embedded in Tissue-Tek O.C.T. compound, cryosectioned, and stained with a CD31 antibody (R&D Systems #AF3628) and DAPI. For organ assessment, various tissues (kidney, lung, heart, gut, liver, and spleen) and plasma were homogenized, and the fluorescent intensity in homogenized tissues was measured. […] Serum samples isolated from the mice were analyzed to determine their lipid profile and metabolic panel. […]

In the case of Verteporfin [free VP], the plaque sizes result was “little-to-no effect on plaque sizes”.
